According to patent US8492106B2, “Identification methods for ergothioneine transporter modulators and therapeutic uses thereof” (Universitat Zu Koln, priority 2004, dated 2013):
Read-outs that look alike come from different tables or passages of the source. Each block holds one compound with its values, some of them ahead of it.

Columns and labels:
ETTh = target: T1, ETTh (Homo sapiens, UniProt Q9H015); assay: Substrate uptake into 293-FIT-ETTh cells expressing ETTh (LC-MS/MS and radiotracer assays); format: cell-based; details: for Km: read-out: Km (affinity of ETTh)
T1 construct: expressed in transfected cells
T1 sequence (Q9H015 1-551): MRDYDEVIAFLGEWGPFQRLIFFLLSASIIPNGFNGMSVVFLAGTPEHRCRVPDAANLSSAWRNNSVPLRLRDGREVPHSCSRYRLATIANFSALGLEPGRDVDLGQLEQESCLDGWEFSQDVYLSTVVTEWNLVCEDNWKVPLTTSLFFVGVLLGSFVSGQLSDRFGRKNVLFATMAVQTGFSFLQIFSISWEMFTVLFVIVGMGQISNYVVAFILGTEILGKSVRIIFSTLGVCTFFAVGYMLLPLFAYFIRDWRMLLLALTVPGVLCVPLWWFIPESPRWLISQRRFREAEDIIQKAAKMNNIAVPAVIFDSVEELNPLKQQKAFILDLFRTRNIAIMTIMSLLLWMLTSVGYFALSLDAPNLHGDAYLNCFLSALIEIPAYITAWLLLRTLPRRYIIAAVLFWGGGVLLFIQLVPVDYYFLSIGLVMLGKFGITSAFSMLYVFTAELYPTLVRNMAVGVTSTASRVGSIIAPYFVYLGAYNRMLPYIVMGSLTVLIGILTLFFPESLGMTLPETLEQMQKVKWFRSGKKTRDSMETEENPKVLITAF
Description: Substrate concentration was 10 μmol/l for all LC-MS/MS assays (gamma-butyryl betaine, N-methyl proline (alias hygric acid), hydroxyproline betaine (alias betonicine), proline betaine (alias stachydrine), and ergothioneine) and 0.1 μmol/l for all radiotracer assays.
(§1) FIG. 3: Determination of Km and Vmax of ergiothioneine transport via ETTh. 293-FIT-ETTh (filled circles) or 293-FIT-NT (open circles) cell monolayers were incubated for 1 min at 37° C. with various ET concentrations in KRH buffer. After thorough washing, cells were lysed with 4 mmol/l HClO4. Lysates were analysed for ET content by LC-MS/MS. Each circle represents a single dish. Uptake into control cells was modeled with a straight line through the origin.
The cDNA of ETTh (EMBL/GenBank accession number Y09881) was inserted into the eukaryotic expression vector pcDNA5/FRT/TO (Invitrogen) to yield pcDNA5/FRT/TO/ETTh. This plasmid was cotransfected together with plasmid pOG44 by lipofection with Tfx-50 (Promega) into Flp-In T-REx 293 cells (Invitrogen; referred to as 293-FIT-NT in the remainder). After antibiotic selection with hygromycin B and blasticidin S, the surviving cells, used as a pool and designated as 293-FIT-ETTh, were assayed for ETT transcripts by Northern analysis.
The cell lines 293-FIT-ETTh and 293-FIT-NT (original cell line, not transfected), grown as monolayers in 6 cm diameter polystyrol dishes and induced with 1 μg/ml doxycycline for 20 h, were incubated for 1 min at 37° C. with 2 ml of a mixture of human plasma (50%) and KRH buffer (50%). KRH buffer (Krebs-Ringer-Henseleit) contains 5.6 mM (+)-Glucose, 125 mM NaCl, 4.8 mM KCl, 1.2 mM KH2PO4, 1.2 mM CaCl2, 1.2 mM MgSO4, and 25 mM HEPES-NaOH pH 7.4. The dishes were rinsed 4 times with 3 ml ice-cold KRH and subsequently incubated with 1 ml of 4 mmol/l HClO4 to release the cell contents. 15 μl of lysate were analyzed by LC-MS (ESI, positive mode) using a Thermo Finnigan TSQ Quantum triple quad mass spectrometer equipped with a Waters Atlantis HILIC silica column (length 100 mm, diameter 3 mm, particle size 5 μm). The solvent for isocratic chromatography (flow rate 250 μl/min) was made of methanol (70%) and 0.1% formic acid (30%). Data sets were compared by LC-MS Difference Shading software (see separate patent application).
A series of compounds structurally related to either stachydrine or carnitine, the key substrate of the related OCTN2 transporter was tested, for transport by ETTh. […] LC-MS/MS determines total cellular content of a particular analyte.

[1] = in vivo
[2] = Cat, blood; cited from earlier work
[3] = Rabbit, blood; cited from earlier work
[4] = Pig, blood; cited from earlier work
[5] = Rat, blood; cited from earlier work
[6] = Accumulation of ergothioneine in the lens of the eye
[7] = Sheep, blood; cited from earlier work
[8] = target: T2, carnitine transporter OCTN2 from rat (Rattus norvegicus, UniProt O70594); assay: ET transport by carnitine transporter OCTN2; format: cell-based
T2 sequence (O70594 1-557): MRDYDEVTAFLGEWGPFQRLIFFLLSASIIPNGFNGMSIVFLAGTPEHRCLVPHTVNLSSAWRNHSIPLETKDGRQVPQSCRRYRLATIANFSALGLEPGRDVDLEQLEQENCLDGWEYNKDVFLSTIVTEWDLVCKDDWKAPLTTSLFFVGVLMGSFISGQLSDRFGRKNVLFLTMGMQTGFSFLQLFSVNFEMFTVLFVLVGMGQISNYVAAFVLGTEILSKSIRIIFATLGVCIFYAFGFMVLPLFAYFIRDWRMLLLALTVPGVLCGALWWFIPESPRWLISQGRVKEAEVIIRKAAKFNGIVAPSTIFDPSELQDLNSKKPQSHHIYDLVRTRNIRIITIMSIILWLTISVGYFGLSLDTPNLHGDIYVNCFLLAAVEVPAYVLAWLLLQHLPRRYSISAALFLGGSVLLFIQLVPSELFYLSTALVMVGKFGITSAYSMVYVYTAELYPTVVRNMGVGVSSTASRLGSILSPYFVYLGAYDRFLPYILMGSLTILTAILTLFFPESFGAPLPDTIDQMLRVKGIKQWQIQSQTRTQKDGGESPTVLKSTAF
Description: If the substrate concentration is much smaller than the affinity of the transporter (=Km), then the clearance is directly proportional to the transport efficiency, defined, by analogy to catalytic efficiency for enzymes, as kcat/Km, where kcat is the turnover number of an individual transporter molecule (note that Vmax=kcat*Etotal, where Etotal is the number of transporter molecules).

[9] = Man, blood; cited from earlier work
[10] = Fowl, blood; cited from earlier work
[11] = Ox, blood; cited from earlier work
[12] = Dog, blood; cited from earlier work
[13] = cited from earlier work
293-FIT-NT cells = assay: ET uptake into control 293-FIT-NT cells (no ETT expression); format: cell-based, human
Description: as §1

[14] = Guinea Pig, blood; cited from earlier work
[15] = LC-MS/MS assay, substrate 10 μmol/l, 1 min at 37° C.
[16] = 293-FIT-ETTh cells, 1 min at 37° C., KRH buffer, LC-MS/MS

Structure (SMILES): CC[N+](CC)(CC)CC [TEA, tetraethyl ammonium]
transport by ETTh (in words) (ETTh; radiotracer assay, substrate 0.1 μmol/l): negligible

transport by ETTh (in words) (ETTh; [15]): good substrates
Structure (SMILES): C[N+]1(C)C[C@@H](O)C[C@@H]1C(=O)[O-] [hydroxyproline betaine]

plasma levels [1]: about 10 μmol/l
Km (ETTh; [16]): 300 µM
transport by ETTh (in words) (ETTh; [15]): accumulated
transport by ETTh (in words) (ETTh; LC-MS/MS assay, substrate 10 μmol/l, 1 min at 37° C., listed as proline betaine): good substrates
Structure (SMILES): C[N+]1(C)CCC[C@H]1C(=O)[O-] [stachydrine]

Structure (SMILES): C[N+](C)(C)[C@@H](Cc1c[nH]c(=S)[nH]1)C(=O)[O-] [ergothioneine, 2-mercaptohistidine trimethylbetaine]
Ergothioneine concentration [2]: 0.5-2 mg/100 ml blood
Ergothioneine concentration [3]: 1-10 mg/100 ml blood
Ergothioneine concentration [4]: 3-27 mg/100 ml blood
Ergothioneine concentration [5]: 1-6 mg/100 ml blood
accumulation in the lens of the eye (in words) [6]: significant accumulation
Ergothioneine concentration [7]: 2-6 mg/100 ml blood
acceptance as substrate by OCTN2 [8]: did not accept ET as a substrate at all
Ergothioneine concentration [9]: 1-4 mg/100 ml blood
Ergothioneine concentration [10]: 2-10 mg/100 ml blood
Ergothioneine concentration [11]: 0.5-2 mg/100 ml blood
Ergothioneine concentration [12]: 3-6 mg/100 ml blood
concentration in human and mammalian tissue (estimated) [13]: 1000 to 2000 µM
slope d of uptake into control cells (293-FIT-NT cells; 293-FIT-NT control cells, 1 min at 37° C., KRH buffer): 0.32 μl/min/mg protein
uptake into cells without expression of ETT (in words) (293-FIT-NT cells; without expression of ETT): virtually no uptake
Ergothioneine concentration [14]: 1-4 mg/100 ml blood
true clearance (Vmax divided by Km) (ETTh; 293-FIT-ETTh cells): 190 μl/min/mg protein
Vmax (ETTh; [16]): 4.2 nmol/min/mg protein
Km (ETTh; [16]): 22 µM
transport by ETTh (in words) (ETTh; [15]): extremely high transport activity
ETTh transports ET better than stachydrine (ETTh; transport efficiency, ET versus stachydrine): 10 fold
